Source: patent publication US20090099253A1, “Internally Masked Neopentyl Sulfonyl Ester Cyclization Release Prodrugs of Acamprosate, Compositions Thereof, and Methods of Use” (XenoPort, Inc., priority 2007, published 2009)

Assays:
[1] = rat, in vivo
Procedure: Acamprosate or acamprosate prodrug was administered by oral gavage to groups of four to six adult male Sprague-Dawley rats (about 250 g). Animals were conscious at the time of the experiment. Acamprosate or acamprosate prodrug was orally (po) or colonically (ic) administered in 3.4% Phosal or 5% Phosal (53 MCT in 7.5% Tween 80 in 50 mM sodium phosphate buffer, pH 6.8) at a dose of 70 mg-equivalents acamprosate per kg body weight.
The percent relative bioavailability (F %) of acamprosate was determined by comparing the area under the acamprosate concentration vs time curve (AUC) following oral or colonic administration of an acamprosate prodrug or acamprosate with the AUC of the acamprosate concentration vs time curve following intravenous administration of acamprosate on a dose normalized basis.

[2] = cited from earlier work
[3] = tested on: cocaine conditioned mice; details: 100 mg/kg for 3 days; cited from earlier work
[4] = tested on: patients with alcohol dependence; details: patients with alcohol dependence abstinent at initiation of treatment; cited from earlier work
[5] = tested on: individual patients; details: doses from about 1,000 mg/day to about 2,000 mg/day; cited from earlier work
[6] = tested on: patients being treated for alcohol withdrawal; details: cited from earlier work

## CC(=O)NCCCS(=O)(=O)OCC(C)(C)[C@@H]1COC(=O)O1 [Compound 12, 2-((4R)-2-Oxo(1,3-dioxolan-4-yl))-2-methylpropyl[3-(acetylamino)propyl]sulfonate]
[1]
  acamprosate colonic bioavailability relative to the acamprosate colonic bioavailability of an equivalent dose of acamprosate itself: at least 5 times

## CC(=O)NCCCS(=O)(=O)O [acamprosate, 3-(Acetylamino)propylsulfonic acid]
[2]; doses of about 1-2 gm per day
  steady-state plasma concentration: 370 to 640 ng/mL
  time post-dose at which steady-state plasma concentration occurs: 3 to 8 h
[2]; humans, oral
  oral bioavailability: about 11%
[3]
  effect on relapse-like behavior: attenuated relapse-like behavior
[4]
  maintaining abstinence from alcohol: effective for maintaining abstinence from alcohol
[5]
  treatment of tardive dyskinesia, dystonia, and tic: effective in treating tardive dyskinesia, dystonia, and tic
[6]
  effect on sleep: improve sleep

## CC(=O)NCCCS(=O)(=O)OCC1(C)CCC(=O)O1 (racemic) [Compound 6, rac-(2-Methyl-5-oxo-2-2,3,4-trihydrofuryl)methyl [3-(acetylamino)propyl]sulfonate]
other
  melting point: 63.1 to 64.8 °C
